How the values were obtained:
[1] = target: T1, RORγt (RORγ-LBD chimeric receptor) (Homo sapiens, UniProt P51449); experiment: Luciferase reporter gene assay of RORγt agonistic activity in HEK293T cells; type: cell-based; design: Emax: dose or concentration left out as unconfirmed; conditions: for EC50: HEK293T, GAL4 luciferase reporter, read-out: EC50; for Emax: HEK-293T
T1 construct: host or cells: HEK293T
T1 sequence (P51449 269-508 limits assumed): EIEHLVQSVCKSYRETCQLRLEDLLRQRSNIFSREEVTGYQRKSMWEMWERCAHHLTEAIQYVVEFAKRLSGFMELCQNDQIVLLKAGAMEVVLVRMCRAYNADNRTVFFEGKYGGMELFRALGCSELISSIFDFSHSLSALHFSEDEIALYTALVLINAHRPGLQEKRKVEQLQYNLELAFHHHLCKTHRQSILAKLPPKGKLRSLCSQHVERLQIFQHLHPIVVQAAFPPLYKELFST
Description: This assay was basically carried out according to the method described in the literature ONCOIMMUNOLOGY, 2016, VOL. 5, NO. 12, e1254854.
The RORγ-LBD coding sequence was inserted into pBIND plasmid (Promega, E1581). This expression vector and a reporter vector (pGL4.35 carrying a stably integrated luciferase reporter gene driven by GAL4 promoter) were co-expressed in HEK293T host cells. When the agonist binds to the corresponding chimeric receptor, the chimeric receptor binds to the GAL4 binding site on the reporter gene carrier and stimulates reporter gene expression. The agonistic activity of the compound on RORγ was determined according to the intensity of the chemiluminescence signal.
1.1 All test compounds were serially diluted at 3-fold dilution with DMSO, with 10 serial dilutions starting from 10 mM; LIT-00093 solution was prepared similarly. […] 1.4 The compound plate was sealed and shaken for 5 min.
Cells were cultured according to ATCC standard operation, and 6*10^6 HEK293T cells were seeded into 100 mm cell culture dishes, cultured overnight in a 37° C., 5% CO2 incubator, and then transfected. Compounds of corresponding concentrations were added for treatment, and the Steady-Glo™ kit (Lot E 2520) was used for further detection.
Chemiluminescence values were detected with Envision 2104; EC50 values were calculated.
% Activity was calculated with the following equation: […]
RLU: […] R L Upositive: average value of positive control R L Uvehicle: average value of negative control
The log values of the compound concentration and % Activity were fitted using Graphad 8.0, to calculate EC50s of the compounds.

GST-RORγ LBD (263-509) = target: T2, GST-RORγ LBD (263-509) (Homo sapiens, UniProt P51449); experiment: TR-FRET assay of agonistic activity on RORγ receptor; type: biochemical; conditions: for EC50: TR-FRET, GST-RORγ LBD with Biotin-SRC1
T2 construct: GST-RORγ LBD ((263-509) (produced at ChemPartner))
T2 sequence (P51449 263-509): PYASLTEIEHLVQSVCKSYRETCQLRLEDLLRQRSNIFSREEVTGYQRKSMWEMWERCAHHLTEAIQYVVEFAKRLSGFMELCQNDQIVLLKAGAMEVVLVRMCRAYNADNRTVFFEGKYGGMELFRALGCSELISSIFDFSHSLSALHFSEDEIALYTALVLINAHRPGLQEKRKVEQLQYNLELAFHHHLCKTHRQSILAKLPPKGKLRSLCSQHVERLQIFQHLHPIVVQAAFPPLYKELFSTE
Description: A time-resolved fluorescence resonance energy transfer (TR-FRET) assay was used for the compounds of the present disclosure, to determine the agonistic activity of the compounds on the RORγ protein receptor. The agonistic activity is expressed by the concentration for 50% of maximal effect (EC50). The experiment was performed basically with reference to the methods described in ONCOIMMUNOLOGY, 2016, VOL. 5, NO. 12, e1254854.
1. Preparation of RORγ Basal Buffer
A 100 mL basal buffer was prepared, mixed homogeneously and stored for use;
The compounds of the examples shown in the table below were prepared into solutions with DMSO as the solvent, serially diluted at 3-fold dilution to 10 concentrations starting from 10 mM, and added to the corresponding wells of a 384-well plate with each concentration of each compound in duplicate;
a. A 75 nM solution of GST-RORγ LBD ((263-509) (produced at ChemPartner)) and a 4 nM solution of Biotin-SRC1 (Glsbiochem) were prepared with the above basal buffer. The two solutions were 1:1 mixed evenly, and 10 μL of the mixed solution was added into each well of the above 384-well plate. The plate was immediately centrifugated at 1000 rpm for 10 seconds; b. A 1 nM solution of Anti-GST Eu (Cisbio, #61GSTKLA) and a 50 nM solution of SA-APC (Cisbio, […]) were prepared with the above basal buffer. The two solutions were 1:1 mixed evenly, and 10 μL of the mixed solution was added into each well of the above 384-well plate. The plate was immediately centrifugated at 1000 rpm for 10 seconds; c. The resulting 384-well plate was incubated at room temperature for 15 minutes. Data were read on an Envision microplate reader, EC50 values and E max % were calculated.
a. Readings were taken at 665 nm and 615 nm wavelengths respectively on the Envision Microplate Reader, and the ratios between them were normalized. b. Calculation was carried out with the following equation: […]
wherein X is the reading of compounds, Min is the reading of the blank solution, and Max is the reading of 10 μM SRC. c. The concentration-response curve data were fitted by a four-parameter logistic nonlinear regression model, and Emax was the TOP value of the fitted curve.

[2] = Metabolic stability in human liver microsomes; type: in vitro ADME; conditions: for microsomal CLint: 0.5 mg protein/mL
Description: (§1) According to standard methods of in vitro metabolic stability studies in the art, eg., the methods described in Kerns, Edward H. and Di Li (2008). Drug-like Properties: Concepts, Structure Design and Methods: from ADME to Toxicity Optimization. San Diego: Academic Press; Di, Li et al., Optimization of a Higher Throughput Microsomal Stability Screening Assay for Profiling Drug Discovery Candidates, J. Biomol. Screen. 2003, The method described in 8(4), 453, the liver microsomal metabolic stability test of the compounds of the present disclosure was carried out analogously as follows.
(§2) The incubation system contained 0.5 mg protein/mL microsomes, cofactors, and PBS, was pre-incubated at 37° C. for 3 min, and then added the substrate (i.e., the test compounds) to initiate the reaction. Samples were taken at 0, 1, 5, 10, 15, 20, 30 and 60 min from the start of the reaction, and an appropriate terminator was added to terminate the reaction.
(§3) The terminator was an ice acetonitrile solution containing 100 ng/mL tolbutamide and 100 ng/mL labetalol.
(§4) Sample treatment (n=3): each appropriate sample was added, vortexed and centrifuged at high speed. The supernatants were collected, and the substrate was detected by HPLC-MS/MS. The peak area at the 0 min was taken as 100%. The peak areas at other time points were converted to percentage of the remaining amount. The natural logarithms of the percentage of remaining amount at each time point was plotted against the incubation time, and the slope (−k) was calculated by linear regression. Then, Clint (uL/min/mg) and half-life (T½, min) of the compounds were calculated following the equation of the inherent clearance rate (Clint)=(k* volume of incubation solution)/mass of liver microsomes.

[3] = Metabolic stability in mouse liver microsomes; type: in vitro ADME, CD-1 mice; conditions: for half-life: CD-1; for microsomal CLint: CD-1, 0.5 mg protein/mL
Description: as §1, §2, §3, §4

[4] = Pharmacokinetic (PK) assay in mice; type: in vivo; conditions: CD-1 mice
Description: The PK of each compound was determined as follows: 6 CD-1 mice (obtained from Shanghai Lingchang Biotechnology Co., Ltd.) were divided into two groups, 3 mice in each group. One group was administered intravenously at a dose of 1 mg/kg, and the vehicle was 5% DMSO/40% PEG400/55% (20% 3-CD); one group was administered by oral gavage at a dose of 5 mg/kg, and the vehicle was DMSO/1% methylcellulose (1:99). Blood samples were collected from saphenous vein of lower leg in each group at 0, 0.083, 0.25, 0.5, 1, 2, 4, 6, 8 and 24 h after administration. Approximately 40 μL of the blood samples were collected into anticoagulant tubes containing EDTA-K2. Immediately after collection, the tubes were inverted at least 5 times to ensure uniform mixing, and then placed on ice. The blood samples collected at each time point were centrifuged at 4° C., 8000 rpm for 5 minutes to obtain plasma. Another 1.5 mL centrifuge tube was marked with the compound name, animal number, and time point, and the plasma was transferred to this tube. The plasma was stored at −80° C. until analysis.
Compound concentrations in plasma were determined by UPLC-MS/MS method, and the pharmacokinetic parameters were calculated by Phoenix WinNolin 6.4 pharmacokinetic software on the obtained data.

[5] = maximum activation rate, TOP of fitted curve

COCC(C(=O)Nc1ccc(-c2ccc(S(=O)(=O)C3CC3)cc2)c(C(F)(F)F)c1)c1ccc(S(C)(=O)=O)cc1 (stereo not drawn) [Example 42, N-(4′-(Cyclopropylsulfonyl)-2-(trifluoromethyl)-[1,1′-biphenyl]-4-yl)-3-methoxy-2-(4-(methylsulfonyl)phenyl)propionamide]
EC50 [1]: 105 nM | Emax [1]: 60.7% | EC50 (GST-RORγ LBD (263-509)): 12.6 nM | Emax (GST-RORγ LBD (263-509); [5]): 194%

CCS(=O)(=O)c1ccc(CC(=O)Nc2cc(Cl)c(-c3ccc(S(=O)(=O)C(C)C)cc3)c(Cl)c2)cc1 [Example 3, N-(2,6-Dichloro-4′-(isopropylsulfonyl)-[1,1′-biphenyl]-4-yl)-2-(4-(ethylsulfonyl)phenyl)acetamide]
half-life [2]: 0.232 h | % Remaining (T = 60 min) [2]: 4.6% | EC50 [1]: 14 nM | Emax [1]: 50.5% | EC50 (GST-RORγ LBD (263-509)): 14 nM | Emax (GST-RORγ LBD (263-509); [5]): 223%

CS(=O)(=O)c1ccc(C(CO)C(=O)Nc2cc(Cl)c(-c3ccc(S(=O)(=O)C4CC4)cc3)c(Cl)c2)cc1 (stereo not drawn) [Example 33, N-(2,6-Dichloro-4′-(cyclopropylsulfonyl)-[1,1′-biphenyl]-4-yl)-2-(4-(methylsulfonyl)phenyl)-3-hydroxypropionamide]
EC50 [1]: 93 nM | Emax [1]: 69.8% | EC50 (GST-RORγ LBD (263-509)): 13.3 nM | Emax (GST-RORγ LBD (263-509); [5]): 202%

CCS(=O)(=O)c1ccc(CC(=O)Nc2cc(Cl)c(-c3ccc(S(=O)(=O)CC)cc3)c(Cl)c2)cc1 [Example 1, N-(2,6-Dichloro-4′-(ethylsulfonyl)-[1,1′-biphenyl]-4-yl)-2-(4-(ethylsulfonyl)phenyl)acetamide]
half-life [2]: 0.697 h | microsomal CLint [2]: 33.1 µL/min/mg | % Remaining (T = 60 min) [2]: 32.4% | EC50 [1]: 47 nM | Emax [1]: 87.1% | EC50 (GST-RORγ LBD (263-509)): 14.5 nM | Emax (GST-RORγ LBD (263-509); [5]): 213% | % Remaining (T = 60 min) [3]: 11.70% | half-life [3]: 0.342 h | microsomal CLint [3]: 67.6 µL/min/mg

CS(=O)(=O)c1ccc(CC(=O)Nc2cc(Cl)c(-c3ccc(S(C)(=O)=O)cc3)c(Cl)c2)cc1 [Example 7, N-(2,6-Dichloro-4′-(methylsulfonyl)-[1,1′-biphenyl]-4-yl)-2-(4-(methylsulfonyl)phenyl)acetamide]
half-life [2]: > 2.42 h | microsomal CLint [2]: < 9.6 µL/min/mg | % Remaining (T = 60 min) [2]: 80.1% | EC50 [1]: 41 nM | Emax [1]: 39.4% | EC50 (GST-RORγ LBD (263-509)): 10 nM | Emax (GST-RORγ LBD (263-509); [5]): 169% | % Remaining (T = 60 min) [3]: 88.20% | half-life [3]: > 2.42 h | microsomal CLint [3]: < 9.6 µL/min/mg

CCS(=O)(=O)c1ccc(C(CO)C(=O)Nc2cc(Cl)c(-c3ccc(S(=O)(=O)C4CC4)cc3)c(Cl)c2)cc1 (stereo not drawn) [Example 22-1, N-(2,6-Dichloro-4′-(cyclopropylsulfonyl)-[1,1′-biphenyl]-4-yl)-2-(4-(ethylsulfonyl)phenyl)-3-hydroxypropionamide]
EC50 [1]: 139 nM | Emax [1]: 73.8% | EC50 (GST-RORγ LBD (263-509)): 7 nM | Emax (GST-RORγ LBD (263-509); [5]): 179%

CCS(=O)(=O)c1ccc(C(CO)C(=O)Nc2cc(Cl)c(-c3ccc(S(=O)(=O)C4CC4)cc3)c(Cl)c2)cc1 (single isomer, unassigned) [Example 39, (S)—N-(2,6-dichloro-4′-(cyclopropylsulfonyl)-[1,1′-biphenyl]-4-yl)-2-(4-(ethylsulfonyl)phenyl)-3-hydroxypropionamide or (R)—N-(2,6-dichloro-4′-(cyclopropylsulfonyl)-[1,1′-biphenyl]-4-yl)-2-(4-(ethylsulfonyl)phenyl)-3-hydroxypropionamide]
CL_obs ([4]; IV 1 mg/kg, values marked **): 8.22** mL/min/kg | AUC(0-t) ([4]; mouse, plasma, IV 1 mg/kg): 2050 ng·h/mL | Cmax ([4]; mouse, plasma, IV 1 mg/kg): 1080 ng/mL | half-life ([4]; mouse, plasma, IV 1 mg/kg): 3.7 h | Vd ([4]; mouse, plasma, IV 1 mg/kg, values marked *, read-out: Vss): 1.53 L/kg | bioavailability ([4]; mouse, plasma, Po 5 mg/kg vs IV 1 mg/kg): 17.1% | AUC(0-t) ([4]; mouse, plasma, Po 5 mg/kg): 1720 ng·h/mL | Cmax ([4]; mouse, plasma, Po 5 mg/kg): 400 ng/mL | half-life ([4]; mouse, plasma, Po 5 mg/kg): 3 h | EC50 (GST-RORγ LBD (263-509)): 13.5 nM | Emax % (GST-RORγ LBD (263-509); [5]): 181.3%

CCS(=O)(=O)c1ccc(-c2c(Cl)cc(NCC(C(=O)O)c3ccc(S(=O)(=O)CC)cc3)cc2Cl)cc1 (stereo not drawn) [Example 12-1, 3-(2,6-Dichloro-4′-(ethylsulfonyl)-[1,1′-biphenyl]-4-amino)-2-(4-(ethylsulfonyl)phenyl)propionic acid]
half-life [2]: > 2.42 h | microsomal CLint [2]: < 9.6 µL/min/mg | % Remaining (T = 60 min) [2]: 107.4% | EC50 [1]: > 3000 nM | EC50 (GST-RORγ LBD (263-509)): 6.8 nM | Emax (GST-RORγ LBD (263-509); [5]): 186% | % Remaining (T = 60 min) [3]: 71% | half-life [3]: 2.11 h
